Changes are numbered by the printed parent chain. Activity calls are given as the source filed them. No cut-off for these calls is given here.
Assays:
[1] = molecular target: T1, Ecdysone receptor (Bombyx mori) (UniProt P49881); assay: (§1) Activation of Bombyx mori Ecdysone receptor (amino acids 272-606) expressed in HEK293 cells transfected with cytomegalovirus promoter-driven expression construct encoding chimeric transactivator composed of DBD and homodimerization domains of yeast Gal4 (amino acids 1-146) and VP16 activation domain (amino acids (413-468) at 10 uM exposed for 16 hrs by Gal4 dependent luciferase reportre gene assay relative to untreated control; format: cell-based
T1 sequence (whole entry): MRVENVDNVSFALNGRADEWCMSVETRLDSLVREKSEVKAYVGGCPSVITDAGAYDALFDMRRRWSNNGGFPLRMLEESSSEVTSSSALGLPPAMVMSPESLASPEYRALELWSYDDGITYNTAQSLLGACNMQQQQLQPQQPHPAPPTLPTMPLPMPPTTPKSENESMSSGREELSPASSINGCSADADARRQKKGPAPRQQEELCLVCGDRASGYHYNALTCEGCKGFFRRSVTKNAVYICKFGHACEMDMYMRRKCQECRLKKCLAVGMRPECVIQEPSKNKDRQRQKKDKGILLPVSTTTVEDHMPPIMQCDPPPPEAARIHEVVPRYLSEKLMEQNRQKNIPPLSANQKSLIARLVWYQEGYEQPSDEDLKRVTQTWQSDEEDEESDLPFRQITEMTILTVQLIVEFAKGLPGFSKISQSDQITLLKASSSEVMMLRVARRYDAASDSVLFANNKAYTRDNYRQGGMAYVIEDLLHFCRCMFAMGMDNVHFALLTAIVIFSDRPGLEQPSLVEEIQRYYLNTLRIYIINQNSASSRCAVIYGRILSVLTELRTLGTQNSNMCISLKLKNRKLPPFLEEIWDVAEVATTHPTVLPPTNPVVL

[2] = molecular target: T1, Ecdysone receptor (Bombyx mori); assay: as §1, with “(456-490)” for “(413-468)”; format: cell-based
[3] = molecular target: T1, Ecdysone receptor (Bombyx mori); assay: as §1, with “(413-476)” for “(413-468)”; format: cell-based
Danio rerio [4] = assay: Toxicity in zebrafish AB embryos assessed as induction of patterning deffects at 10 uM dosed every 24 hrs measured 72 hrs post fertilization; format: organism-based; conditions: in vivo
[5] = molecular target: T1, Ecdysone receptor (Bombyx mori); assay: as §1, with “(413-490)” for “(413-468)”; format: cell-based
[6] = molecular target: T1, Ecdysone receptor (Bombyx mori); assay: as §1, with “(468-490)” for “(413-468)”; format: cell-based
[7] = molecular target: T1, Ecdysone receptor (Bombyx mori); assay: as §1, with “(413-456)” for “(413-468)”; format: cell-based
[8] = molecular target: T1, Ecdysone receptor (Bombyx mori); assay: as §1, with “AB zebrafish embryos” for “HEK293 cells”
[9] = system: T2, Ecdysone receptor (Bombyx mori), P49881 [V454I,Y474E]; assay: as §1, with “receptor V454I and Y474E mutant” for “receptor”, “AB zebrafish embryos” for “HEK293 cells”, “(456-490)” for “(413-468)”
T2 sequence (whole entry): T1 sequence (whole entry) with V454I, Y474E

Danio rerio [10] = organism: Danio rerio; assay: Toxicity in zebrafish AB embryos assessed as induction of patterning deffects at 10 uM single dose measured 72 hrs post fertilization; format: organism-based; conditions: in vivo
[11] = system: T2, Ecdysone receptor (Bombyx mori), P49881 [V454I,Y474E]; assay: as §1, with “receptor V454I and Y474E mutant” for “receptor”, “272-606)-mediated myl7 gene expression” for “272-606)”, “AB zebrafish embryos” for “HEK293 cells”, “(468-490) assessed as myl7-promoter driven heart specific GFP expression” for “(413-468)”, “during 3 to 48” for “for 16”, “hrs post fertilization” for “hrs”
[12] = molecular target: T1, Ecdysone receptor (Bombyx mori); assay: as §1, with “AB zebrafish embryos” for “HEK293 cells”, “(413-476)” for “(413-468)”
[13] = molecular target: T1, Ecdysone receptor (Bombyx mori); assay: as §1, with “AB zebrafish embryos” for “HEK293 cells”, “(413-456)” for “(413-468)”
[14] = system: T2, Ecdysone receptor (Bombyx mori), P49881 [V454I,Y474E]; assay: as §1, with “receptor V454I and Y474E mutant” for “receptor”, “272-606)-mediated mylz2 gene expression” for “272-606)”, “AB zebrafish embryos” for “HEK293 cells”, “(468-490) assessed as mylz2-promoter driven fats skeletal muscle specific GFP expression” for “(413-468)”, “during 3 to 48” for “for 16”, “hrs post fertilization” for “hrs”
[15] = system: T2, Ecdysone receptor (Bombyx mori), P49881 [V454I,Y474E]; assay: (§2) Induction of nuclear translocation of Bombyx mori Ecdysone receptor V454I and Y474E mutant (amino acids 272-606) expressed in AB zebrafish embryos transfected with cytomegalovirus promoter-driven expression construct encoding chimeric transactivator composed of DBD and homodimerization domains of yeast Gal4 (amino acids 1-146) and VP16 activation domain (amino acids (468-490) at 1 uM exposed for 30 mins at 4 hrs post fertilization by Gal4 dependent luciferase reportre gene assay relative to untreated control
[16] = system: T2, Ecdysone receptor (Bombyx mori), P49881 [V454I,Y474E]; assay: as §2, with “Activation of” for “Induction of nuclear translocation of”, “at 50” for “at 1”, “for 2 to 6 hrs” for “for 30 mins”
[17] = molecular target: T1, Ecdysone receptor (Bombyx mori); assay: as §1, with “AB zebrafish embryos” for “HEK293 cells”, “(468-490)” for “(413-468)”
[18] = molecular target: T1, Ecdysone receptor (Bombyx mori); assay: as §1, with “AB zebrafish embryos” for “HEK293 cells”, “(413-490)” for “(413-468)”
[19] = molecular target: T1, Ecdysone receptor (Bombyx mori); assay: as §1, with “AB zebrafish embryos” for “HEK293 cells”, “([…])” for “(413-468)”
[20] = system: T2, Ecdysone receptor (Bombyx mori), P49881 [V454I,Y474E]; assay: as §1, with “receptor V454I and Y474E mutant” for “receptor”, “AB zebrafish embryos” for “HEK293 cells”, “(468-490)” for “(413-468)”

| SMILES | fold change (FC) [1] | fold change (FC) [2] | fold change (FC) [3] | Activity (Danio rerio [4]) | fold change (FC) [5] | fold change (FC) [6] | fold change (FC) [7] | fold change (FC) [8] | fold change (FC) [9] | Activity (Danio rerio [10]) | Activity [11] | fold change (FC) [12] | fold change (FC) [13] | Activity [14] | Activity [15] | Activity [16] | fold change (FC) [17] | fold change (FC) [18] | fold change (FC) [19] | fold change (FC) [20] |
| --- | --- | --- | --- | --- | --- | --- | --- | --- | --- | --- | --- | --- | --- | --- | --- | --- | --- | --- | --- | --- |
| CC(C)CC[C@@H](O)[C@](C)(O)[C@H]1CC[C@@]2(O)C3=CC(=O)[C@@H]4C[C@@H](O)[C@@H](O)C[C@]4(C)[C@H]3CC[C@]12C [PONASTERONE A] | 44 | 55.5 | 18.7 | Non-toxic | 6.05 | 19.5 | 26.1 | – | – | – | – | – | – | – | – | – | – | – | – | – |
| CCc1ccc(C(=O)NN(C(=O)c2cc(C)cc(C)c2)C(C)(C)C)cc1 [TEBUFENOZIDE] | 114 | 1420 | 57 | Non-toxic | 14.5 | 880 | 139 | 5.05 | 212 | Non-toxic | 44% | 1.73 | 1.13 | 69% | Active | Active | 113 | 0.8 | 42.2 | 1070 |
| Cc1cc(C)cc(C(=O)N(NC(=O)c2ccc3c(c2C)OCCO3)C(C)(C)C)c1 | – | – | – | Non-toxic | – | – | – | – | – | – | – | – | – | – | – | – | – | – | – | – |
| COc1cccc(C(=O)NN(C(=O)c2cc(C)cc(C)c2)C(C)(C)C)c1C [METHOXYFENOZIDE] | – | – | – | Non-toxic | – | – | – | – | – | – | – | – | – | – | – | – | – | – | – | – |

From ChEMBL document CHEMBL1240322, “Small-molecule regulation of zebrafish gene expression” (Nat Chem Biol, 2007)
